Measurements reported in ChEMBL document CHEMBL3044941, “Synthesis and Structure-Activity Relationships of Dinotefuran Derivatives: Modification in the Tetrahydro-3-furylmethyl Part” (2004).

How the values were obtained:
Nephotettix cincticeps = experiment: Insecticidal activity against 1 to 3 day-old adult Nephotettix cincticeps (green rice leafhopper) infested in compound-treated rice seedlings assessed as mortality measured after 3 days; assay type: functional
Laodelphax striatellus = experiment: Insecticidal activity against 1 to 3 day-old adult Laodelphax striatella (small brown planthopper) infested compound-treated rice seedlings assessed as mortality measured after 3 days; assay type: functional

Compound | LC70 (Nephotettix cincticeps) [ppm] | LC70 (Laodelphax striatellus) [ppm]
CN/C(=C\[N+](=O)[O-])NCC1COC(C)(C)C1 (configuration not stated) | 1 | 10
CCC1COCC1CN/C(=N/[N+](=O)[O-])NC (mixture of isomers) | 100 | >1000
O=[N+]([O-])/C=C1\NCCCN1CC1CCOC1 (configuration not stated) | 0.1 | 1
CN/C(=C\[N+](=O)[O-])NCC1CCOC1C (mixture of isomers) | >1000 | >1000
CN/C(=N\[N+](=O)[O-])NCC1(C)CCOC1 (configuration not stated) | >1000 | >1000
CN/C(=N\[N+](=O)[O-])NCC1(C)COCC1C (mixture of isomers) | >1000 | >1000
CC1(C)CC(CN2CCCN/C2=C\[N+](=O)[O-])CO1 (configuration not stated) | 1 | 1
CN/C(=N\[N+](=O)[O-])NCC1CCOC1C (configuration not stated) | >1000 | >1000
CN/C(=N/CC1CCOC1)N[N+](=O)[O-] (configuration not stated) [DINOTEFURAN] | 0.1 | 0.1
O=[N+]([O-])/N=C1\NCCCN1CC1CCOC1 (configuration not stated) | 0.1 | 1
CN/C(=N\[N+](=O)[O-])NCC1COC(C)C1 (mixture of isomers) | 1 | 10
CN/C(=N\[N+](=O)[O-])NCC1COCC1C (mixture of isomers) | 1 | 10
CN/C(=C\[N+](=O)[O-])NCC1CCOC1OC (mixture of isomers) | >1000 | >1000
CN/C(=N\[N+](=O)[O-])NCC1COC(c2ccccc2)C1 (mixture of isomers) | >1000 | >1000
CN/C(=N\[N+](=O)[O-])NCC1CCOC1OC (mixture of isomers) | >1000 | >1000
CC1COCC1CN1CCCN/C1=C\[N+](=O)[O-] (mixture of isomers) | 0.1 | 1
CN/C(=C\[N+](=O)[O-])NCC1COC(C)C1 (mixture of isomers) | 1 | 10
CN/C(=C\[N+](=O)[O-])NCC1COCC1C (mixture of isomers) | 1 | 1
CC1CC(CN2CCCN/C2=C\[N+](=O)[O-])CO1 (mixture of isomers) | 1 | 1
CC1(C)CC(CN2CCCN/C2=N\[N+](=O)[O-])CO1 (configuration not stated) | 1 | 10
CC1CC(CN2CCCN/C2=N\[N+](=O)[O-])CO1 (mixture of isomers) | 0.1 | 1
CC1COCC1CN1CCCN/C1=N\[N+](=O)[O-] (mixture of isomers) | 0.1 | 10
CN/C(=C\[N+](=O)[O-])NCC1CCOC1 (configuration not stated) | 0.1 | 0.1
CN/C(=N\[N+](=O)[O-])NCC1COC(C)(C)C1 (configuration not stated) | 1 | 100
CCC1COCC1CN/C(=C/[N+](=O)[O-])NC (mixture of isomers) | 100 | >1000
CCC1COCC1CN1CCCN/C1=C\[N+](=O)[O-] (mixture of isomers) | >1000 | 100
